13 molecules from patent publication US20260234140A1, “PYRIDOPYRIMIDINE DERIVATIVE AND USE THEREOF” (SUNSHINE LAKE PHARMA CO., LTD., priority 2023, published 2026) can be followed below.

This experiment deals with PD1/PD-L1 pathway. Put plainly: PD1/PD-L1 Blockade Bioassay, inhibition of the PD1/PD-L1 pathway at the cellular level (luciferase reporter, PD-1 Jukat T cells co-cultured with PD-L1 aAPC/CHO-K1 cells). It is filed as cell-based. The conditions noted are these: T-cell; for EC50: PD-1 Jukat T cells + PD-L1 aAPC/CHO-K1 cells, 6 h co-culture, ONE-Glo luciferase readout; for Emax: maximum % Activity relative to atezolizumab (set to 100%). Here is the method: Experiment 1: Detecting the Inhibitory Activity of Compounds on the PD1/PD-L1 Pathway at the Cellular Level Using the PD1/PD-L1 Blockade Bioassay Method
PD-1 Jukat T cells were revived and cultured with 1640 medium containing 100 μg/mL Hygromycin B, […] Puromycin, 10% FBS and 1% dual antibody; PD-L1 aAPC/CHO-K1 cells were revived and cultured with F12K medium containing 100 μg/mL Hygromycin B, 200 μg/mL G418, 10% FBS and 1% dual antibody.
The revived cells need to be passaged 2-3 times. When the cells enter the exponential growth phase with good growth status, the PD-L1 aAPC/CHO-K1 was digested with trypsin, and the cells were resuspended in F12K containing 5% FBS and adjusted to a density of 5×10^5 cells/mL. 20 μl/well were plated in a 384-well plate (10,000 cells/well) and incubated in an incubator overnight for 16-20 h.
a Preparation of compound stock solution: Dissolve the compound to be tested in DMSO to prepare a 20 mM stock solution.
b Compound gradient dilution: dilute the compound in 1640 medium containing 5% FBS without antibiotics or phenol red, and make 3-fold gradient dilutions to prepare 10 concentration gradients (2×).
c Adding drugs: Take out the cell culture plate, discard the supernatant, add 20 μl/well of the prepared compound, and incubate in the incubator for 1.5 h.
PD-1 Jukat T cells were collected, washed once with PBS, and resuspended in 1640 medium containing 5% FBS without antibiotics or phenol red. The density was adjusted to 1×10^6 cells/mL. 20 μl PD-1 Jukat T cells (20,000 cells/well) were added to each well and incubated in the incubator for 6 h.
ONE-Glo™ Luciferase Assay reagent was thawed to room temperature in advance and then added to a 384-well plate at 40 µl/well. Incubate in the dark for 15 minutes and read the […] signal on a plate reader.
[formula] • Among them, % Activity: % Activity • RLU: Resulting Luminescence unit • RLUvehicle: Average RLU value of negative control wells on each plate • RLUpositive: Average RLU value of positive control wells on each plate • Vehicle control: DMSO (0.1%) corresponding to the test value was used as negative control (its % Activity was 0%); • Positive control: The highest detection value at the atezolizumab administration concentration was used as the positive control (its % Activity was 100%). • (2) EC50 value calculation method: The EC50 value was obtained by the nonlinear fitting formula of Graph Pad Prism 8.0 software. The calculation formula is as follows:
Y=Bottom+(Top−Bottom)/(1+10^((Log EC50−X)×HillSlope)) • X: log of activator concentration (logarithm of compound concentration); Y: % Activity • (3) Emax definition: The maximum % Activity value corresponding to the maximum activation value of the compound relative to atezolizumab (the activation value is set to 100%).
(In general: Reporter assays use an easily measured gene product as a stand-in for the process of interest.)

Usually EC50 stands for the concentration at which the effect is half-maximal. As usually defined, the Emax is the maximal effect, on the per cent scale that the assay sets. Consider `COc1nc(-c2cccc(-c3cccc(Nc4nc(C(F)F)nc5cc(CN6CC[C@@H](CO)C6)cnc45)c3C)c2Cl)cnc1CN(C)[C@H]1CC[C@H](C(=O)O)CC1` [Example 23, (1r,4r)-4-(((5-(2-chloro-3′-((2-(difluoromethyl)-7-(((R)-3-(hydroxymethyl)pyrrolidin-1-yl)methyl)pyrido[3,2-d]pyrimidin-4-yl)amino)-2′-methyl-[1,1′-biphenyl]-3-yl)-3-methoxypyrazin-2-yl)methyl)(methyl)amino)cyclohexane-1-carboxylic acid], for which the EC50 is 0.0444 µM and the Emax amounted to 74%.

As to `COc1nc(-c2cccc(-c3cccc(Nc4nc(C(F)F)nc5cc(CN6CC[C@H](O)C6)cnc45)c3C)c2Cl)cnc1CN[C@@H]1CCOC[C@@H]1O` [Example 51, (S)-1-((4-((2′-chloro-3′-(5-((((3R,4R)-3-hydroxytetrahydro-2H-pyran-4-yl)amino)methyl)-6-methoxypyrazin-2-yl)-2-methyl-[1,1′-biphenyl]-3-yl)amino)-2-(difluoromethyl)pyrido[3,2-d]pyrimidin-7-yl)methyl)pyrrolidin-3-ol], the EC50 was found to be 0.0991 µM and the Emax is 96%.

Turning to `COc1nc(-c2cccc(-c3cccc(Nc4nc(C(F)F)nc5cc(CN6CC[C@@H](O)C6)cnc45)c3Cl)c2Cl)cnc1CN(C)[C@H]1CC[C@H](C(=O)O)CC1` [Example 35, (1r,4r)-4-(((5-(2,2′-dichloro-3′-((2-(difluoromethyl)-7-(((R)-3-hydroxypyrrolidin-1-yl)methyl)pyrido[3,2-d]pyrimidin-4-yl)amino)-[1,1′-biphenyl]-3-yl)-3-methoxypyrazin-2-yl)methyl)(methyl)amino)cyclohexane-1-carboxylic acid], the EC50 was determined as 0.0461 µM and the Emax stood at 102%.

As to `COc1nc(-c2cccc(-c3cccc(Nc4nc(C(F)F)nc5cc(CN6CC[C@@H](O)C6)cnc45)c3C)c2Cl)cnc1CN(C)C[C@H]1CC[C@H](C(=O)O)CC1` [Example 14, (1r,4r)-4-((((5-(2-chloro-3′-((2-(difluoromethyl)-7-(((R)-3-hydroxypyrrolidin-1-yl)methyl)pyrido[3,2-d]pyrimidin-4-yl)amino)-2′-methyl-[1,1′-biphenyl]-3-yl)-3-methoxypyrazin-2-yl)methyl)(methyl)amino)methyl)cyclohexane-1-carboxylic acid], the EC50 is 0.0313 µM and the Emax was 103%.

As to `COc1nc(-c2cccc(-c3cccc(Nc4nc(C(F)F)nc5cc(CN6CCCC6)cnc45)c3C)c2Cl)cnc1CN(C)[C@H]1CC[C@H](C(=O)O)CC1` [Example 20, (1r,4r)-4-(((5-(2-chloro-3′-((2-(difluoromethyl)-7-(pyrrolidin-1-ylmethyl)pyrido[3,2-d]pyrimidin-4-yl)amino)-2′-methyl-[1,1′-biphenyl]-3-yl)-3-methoxypyrazin-2-yl)methyl)(methyl)amino)cyclohexane-1-carboxylic acid], the EC50 was found to be 0.0635 µM and the Emax turned out to be 108%.

As for `COc1nc(-c2cccc(-c3cccc(Nc4nc(C(F)F)nc5cc(CN6CC[C@@H](O)C6)cnc45)c3C)c2Cl)cnc1CN[C@H]1CC[C@H](C(=O)O)CC1` [Example 33, (1r,4r)-4-(((5-(2-chloro-3′-((2-(difluoromethyl)-7-(((R)-3-hydroxypyrrolidin-1-yl)methyl)pyrido[3,2-d]pyrimidin-4-yl)amino)-2′-methyl-[1,1′-biphenyl]-3-yl)-3-methoxypyrazin-2-yl)methyl)amino)cyclohexane-1-carboxylic acid], the EC50 was 0.0586 µM and the maximum response (Emax) is 95.3%.

Consider `O=C(O)C1CCN(Cc2ccnc(Nc3cccc(-c4cccc(Nc5nc(C(F)F)nc6cc(CN7CC[C@@H](O)C7)cnc56)c4Cl)c3Cl)c2F)CC1` [Example 36, (R)-1-((2-((2,2′-dichloro-3′-((2-(difluoromethyl)-7-((3-hydroxypyrrolidin-1-yl)methyl)pyrido[3,2-d]pyrimidin-4-yl)amino)-[1,1′-biphenyl]-3-yl)amino)-3-fluoropyridin-4-yl)methyl)piperidine-4-carboxylic acid], for which the EC50 turned out to be 0.0555 µM and the Emax is 85%.

As to `COc1nc(-c2cccc(-c3cccc(Nc4nc(C(F)F)nc5cc(CN6CC[C@H](O)C6)cnc45)c3C)c2Cl)cnc1CN1CC[C@H](O)C1` [Example 50, (S)-1-((5-(2-chloro-3′-((2-(difluoromethyl)-7-(((S)-3-hydroxypyrrolidin-1-yl)methyl)pyrido[3,2-d]pyrimidin-4-yl)amino)-2′-methyl-[1,1′-biphenyl]-3-yl)-3-methoxypyrazin-2-yl)methyl)pyrrolidin-3-ol], the concentration for a half-maximal effect (EC50) is 0.0991 µM and the Emax worked out at 96%.

As for `COc1nc(-c2cccc(-c3cccc(Nc4nc(C(F)F)nc5cc(CN6CC[C@@H](O)C6)cnc45)c3C)c2Cl)ccc1CN(C)CC12CCC(C(=O)O)(CC1)C2` [Example 10, (R)-4-((((6-(2-chloro-3′-((2-(difluoromethyl)-7-((3-hydroxypyrrolidin-1-yl)methyl)pyrido[3,2-d]pyrimidin-4-yl)amino)-2′-methyl-[1,1′-biphenyl]-3-yl)-2-methoxypyridin-3-yl)methyl)(methyl)amino)methyl)bicyclo[2.2.1]heptane-1-carboxylic acid], the concentration for a half-maximal effect (EC50) was determined as 0.0707 µM and the maximum response (Emax) came out at 79.3%.

As for `COc1nc(-c2cccc(-c3cccc(Nc4nc(C(F)F)nc5cc(CN6CC[C@@H](O)C6)cnc45)c3Cl)c2Cl)ccc1CN(C)[C@H]1CC[C@H](C(=O)O)CC1` [Example 16, (1r,4r)-4-(((6-(2,2′-dichloro-3′-((2-(difluoromethyl)-7-(((R)-3-hydroxypyrrolidin-1-yl)methyl)pyrido[3,2-d]pyrimidin-4-yl)amino)-[1,1′-biphenyl]-3-yl)-2-methoxypyridin-3-yl)methyl)(methyl)amino)cyclohexane-1-carboxylic acid], the EC50 amounted to 0.0281 µM and the maximum response (Emax) came to 107%.

In the case of `COc1nc(-c2cccc(-c3cccc(Nc4nc(C(F)F)nc5cc(CN6CC[C@H]([C@@H](C)O)C6)cnc45)c3C)c2Cl)cnc1CN(C)[C@H]1CC[C@H](C(=O)O)CC1` [Example 44, (1r,4r)-4-(((5-(2-chloro-3′-((2-(difluoromethyl)-7-(((S)-3-((R)-1-hydroxyethyl)pyrrolidin-1-yl)methyl)pyrido[3,2-d]pyrimidin-4-yl)amino)-2′-methyl-[1,1′-biphenyl]-3-yl)-3-methoxypyrazin-2-yl)methyl)(methyl)amino)cyclohexane-1-carboxylic acid], the concentration giving a half-maximal response (EC50) was found to be 0.0845 µM and the maximal response (Emax) turned out to be 69%.

As for `[2H]C([2H])([2H])N(Cc1ccc(-c2cccc(-c3cccc(Nc4nc(C(F)F)nc5cc(CN6CC[C@@H](O)C6)cnc45)c3C)c2Cl)nc1OC)[C@H]1CC[C@H](C(=O)O)CC1` [Example 13, (1r,4r)-4-(((6-(2-chloro-3′-((2-(difluoromethyl)-7-(((R)-3-hydroxypyrrolidin-1-yl)methyl)pyrido[3,2-d]pyrimidin-4-yl)amino)-2′-methyl-[1,1′-biphenyl]-3-yl)-2-methoxypyridin-3-yl)methyl)(methyl-d3)amino)cyclohexane-1-carboxylic acid], the EC50 is 0.0382 µM and the Emax came to 104%.

Regarding `COc1nc(-c2cccc(-c3cccc(Nc4nc(C(F)F)nc5cc(CN6CCC[C@H]6C)cnc45)c3C)c2Cl)cnc1CN(C)[C@H]1CC[C@H](C(=O)O)CC1` [Example 41], the concentration for a half-maximal effect (EC50) was 0.0906 µM and the Emax was found to be 79%.
